US11738007B2, “Treatment of glaucoma using endothelin receptor antagonists” (Perfuse Therapeutics, Inc., priority 2019, dated 2023)

Key:
[1] = Pharmacokinetics after topical administration in the rabbit; type: in vivo, Dutch-belted rabbits; details: single topical eye drop 100 μg; 10 minutes, 2 and 7 hours
Experimental: To determine the pharmacokinetic properties of Edonentan following topical administration in the rabbit, rabbits (Dutch-belted rabbits) received an eye drop in both eyes (100 μg of Edonentan, 35 μL dose volume/eye). After the administrations, the animals (N=2) were euthanized at different time points (e.g. 10 minutes (immediately after pot-dose), 2 and 7 hours) and tissues were collected for analysis. List of tissues collected include plasma, retina, vitreous humor and bulbar conjunctiva.

ETA receptor = molecular target: T1, ETA receptor (Homo sapiens, UniProt P25101); test: Functional potency for ETA receptor; type: biochemical
T1 sequence (P25101 21-427): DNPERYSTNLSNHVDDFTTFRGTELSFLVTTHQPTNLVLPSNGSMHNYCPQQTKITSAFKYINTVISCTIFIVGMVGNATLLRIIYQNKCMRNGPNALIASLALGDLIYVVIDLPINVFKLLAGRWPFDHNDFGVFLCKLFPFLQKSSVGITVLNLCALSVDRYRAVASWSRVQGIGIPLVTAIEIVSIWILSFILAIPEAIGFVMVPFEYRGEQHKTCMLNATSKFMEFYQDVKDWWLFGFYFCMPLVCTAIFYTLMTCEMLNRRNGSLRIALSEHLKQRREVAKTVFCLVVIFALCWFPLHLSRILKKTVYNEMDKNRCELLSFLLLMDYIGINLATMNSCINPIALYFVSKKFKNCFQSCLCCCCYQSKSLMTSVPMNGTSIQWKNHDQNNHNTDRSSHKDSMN
Source text: (§1) In the above table, the physicochemical data, e.g., solubility, were obtained following standard protocols known in the field (see, e.g., Reis et al., Mini Rev Med Chem., 2010, 10(11):1071-6; Avdeef et al., Expert Opin Drug Metab Toxicol., 2005, 1(2):325-42; Bharate et al., Comb Chem High Throughput Screen., 2016, 19(6):461-9; and Jain et al., J Pharm Biomed Anal., 2013, 86:11-35); and the biochemical data, i.e., potency for ETA/ETB, were obtained following the protocols known in the field (see, e.g., Kirkby et al., Br J Pharmacol., 2008, 153(6):1105-19; and Maguire et al., Br J Pharmacol., 2014, 171(24):5555-72).

[2] = system: elevated intraocular pressure (IOP); test: Morrison's rat model of glaucoma (elevated IOP); type: in vivo, Brown Norway rats; details: topical eye drops 100 μg per dose, five days a week, four weeks
Source text: Adult male and female retired breeder Brown Norway rats (approximate age groups of 8 to 11 months) were obtained from Envigo (Indianapolis, Ind.). Baseline IOP measurements and pattern electroretinogram (PERG) amplitudes were collected prior to the surgery for elevation of IOP (to ensure that the IOP and PERG amplitudes were in the expected range of values). IOP was elevated in one eye (left eye) of the rats, while the corresponding right eyes served as contralateral controls. The Morrison method to elevate IOP in rats was carried out by injection of 50 μL of hypertonic saline through the episcleral veins to sclerose the trabecular meshwork. IOP was measured twice a week throughout the entire duration of the experiment. […] After detecting an elevation of IOP for two consecutive days, topical administration of eye drops (20 μL (100 μg) per dose of the tested compounds in the IOP elevated eye) was commenced and carried out for five days a week for a total of four weeks. In the 4th week of treatment, PERG analysis was carried out and rats were sacrificed by an overdose of pentobarbital (Fatal-Plus). Aqueous humor was collected from the rat eyes, frozen and shipped for analysis. Retinal flat mounts were prepared, immunostained with the RGC marker, Brn3a antibody and surviving RGCs were counted in two eccentricities (central and peripheral). For this study, the Morrison's model was used to induce ocular hypertension in adult male retired breeder Brown Norway rats as previously described by Morrison et al., (Morrison J C, Moore […], Gold […], Johnson E C. A rat model of chronic pressure-induced optic nerve damage. Exp Eye Res. 1997; 64(1):85-96). The immunostained retinal flat mounts were obtained to measure the retinal ganglion cell (RGC) counts. To obtain immunostained retinal flat mounts, the animals were euthanized after the treatments and then their eyes were enucleated. The eye cups were fixed overnight at 4° C. in 4% paraformaldehyde (PFA) and retinal flat mounts were prepared for collecting images. The retinal ganglion cell (RGC) counting was conducted using the images of immunostained retinal flat mounts. The images were uploaded to ImageJ, a photo editor designed for biology research (Rasband, 1997-2018) and the labeled retinal ganglion cells were counted manually in two eccentricities (central and peripheral). […] Pattern ERG (PERG) was used to assess the RGC function. […] Briefly, PERG signals were acquired from a DTL-plus electrode placed on the lower part of the corneal surface and the PERG waves were analyzed using the EMWIN software (LKC). The difference between the amplitude of the major positive (P1) and negative (N2) waves were calculated to […] amplitude.

[3] = Pharmacokinetics after intravitreal administration in the rabbit; type: in vivo, rabbits (Oryctolagus cuniculus); details: plasma and ocular tissues, FIG. 9A-9D
Experimental: To determine the pharmacokinetic and safety properties of Edonentan following intravitreal administration in the rabbit, rabbits (Oryctolagus cuniculus) received bilateral intravitreal injections (20 μL injection volume/eye). Following the injections, animals were tranquilized with a ketamine/xylazine cocktail, and then the animals were euthanized with an overdose of sodium pentobarbital (Euthasol). Animals designated for the pharmacokinetic analysis were euthanized at different time points (e.g. 12, 16, 24, 36 and 48 hours). At least 1.0 mL of whole blood was drawn from the marginal ear vein or cardiac puncture (terminal bleed only) into K2EDTA tubes for plasma collection and processed for analytical analysis.
Immediately following euthanasia, the eyes was enucleated. Aqueous humor from both eyes was removed via syringe and snap frozen for analysis. Eyes were dissected when frozen to isolate various ocular tissues and minimize drug diffusion to adjacent tissues. Tissues from left and right eyes were collected in separate vials for analysis. List of tissues collected include plasma and aqueous humor, iris/ciliary body (ICB), retina, vitreous humor and RPE/choroid. The pharmacokinetic properties of intravitreally delivered Edonentan in rabbits are shown in FIG. 9A, FIG. 9B, FIG. 9C and FIG. 9D.

LogD = type: physicochemical; details: pH 7.4
Source text: as §1

Cc1onc(NS(=O)(=O)c2ccccc2-c2ccc(-c3ncco3)cc2CN(C)C(=O)CC(C)(C)C)c1C [Edonentan, N-[[2′-[[(4,5-dimethyl-3-isoxazolyl)amino]sulfonyl]-4-(2-oxazolyl)[1,1′-biphenyl]-2-yl]methyl]-N,3,3-trimethylbutanamide]
Detection in plasma, retina, vitreous humor and bulbar conjunctiva [1]: detected in all tissues examined at all timepoints | IC50 (ETA receptor; functional potency): 1.54 nM | Functional Potency for ETA and ETB Receptors (rating) (ETA receptor; rating in words): High potency | RGC function, pattern electroretinogram (PERG) changes [2]: maintained RGC function | Retinal ganglion cell (RGC) counts, peripheral retina [2]: prevented RGC loss | t1/2 [3]: longer | logD (LogD): 1.48
